Results taken from patent US20250041308A1, “BRUTON'S TYROSINE KINASE INHIBITORS AS ANTIVIRAL AGENTS” (University of Florida Research Foundation, Incorporated, priority 2022, published 2025).

How the values were obtained:
Type in all cases: cell-based, Epstein-Barr virus (EBV)
[1] = test system: EBV lytic cycle (ZEBRA) in EBV-positive HH514-16 Burkitt lymphoma cell line; experiment: Flow cytometry for ZEBRA in HH514-16 cells, lytic cycle induced with sodium butyrate; conditions: for Percent positive cells ZEBRA: 2 h pretreatment
Source text: (§1) Cells were harvested, fixed and permeabilized, stained with a monoclonal antibody to the viral latent-to-lytic switch protein ZEBRA (Z EBV Replication Activator), and examined by flow cytometry. ZEBRA is an early lytic protein of EBV, encoded by BZLFI, that drives the lytic cascade. Cells were stained in parallel with an isotype-matched control antibody for placement of gates. […] Decreasing EBV switching to lytic phase decreases the risk of the B cells developing lymphoma.

[2] = test system: EBV lytic cycle (ZEBRA) in EBV-positive HH514-16 Burkitt lymphoma cell line; experiment: Flow cytometry for ZEBRA in HH514-16 cells, lytic cycle induced with AZA; conditions: for Percent positive cells ZEBRA: 2 h pretreatment
Source text: Cells were harvested, fixed and permeabilized, stained with a monoclonal antibody to the viral latent-to-lytic switch protein ZEBRA (Z EBV Replication Activator), and examined by flow cytometry. Cells were stained in parallel with an isotype-matched control antibody for placement of gates.

[3] = test system: EBV lytic cycle (ZEBRA) in EBV-positive Akata Burkitt lymphoma cell line; experiment: Flow cytometry for ZEBRA in Akata cells, lytic cycle induced with rabbit-anti human IgG; conditions: for Percent positive cells ZEBRA: Rabbit anti-human IgG induction 24 h, 2 h pretreatment
Source text: Akata cells are an EBV-producer line established from a patient with Burkitt's lymphoma. Akata cells produce transforming virus upon treatment of cells with anti-immunoglobulin antibodies. Cells were harvested, fixed and permeabilized, stained with a monoclonal antibody to the viral latent-to-lytic switch protein ZEBRA (Z EBV Replication Activator), and examined by flow cytometry. Cells were stained in parallel with an isotype-matched control antibody for placement of gates.

[4] = test system: EBV lytic cycle (ZEBRA) in EBV-positive Mutu-I Burkitt lymphoma cells; experiment: Flow cytometry for ZEBRA in Mutu-I cells, lytic cycle induced with sodium butyrate; conditions: sodium butyrate 24 hours, 2 h pretreatment
Source text: as §1, with “ZEBRA,” for “ZEBRA (Z EBV Replication Activator),”, “cytometry.” for “cytometry. ZEBRA is an early lytic protein of EBV, encoded by BZLFI, that drives the lytic cascade.”

[5] = test system: EBV lytic cycle proteins ZEBRA and EA-D in EBV-positive HH514-16 Burkitt lymphoma cell line; experiment: Immunoblotting for ZEBRA and EA-D in HH514-16 cells induced with sodium butyrate
Source text: Cells were harvested and subjected to immunoblotting with monoclonal antibodies to ZEBRA and EA-D (Early antigen-diffuse). EA-D is useful in the diagnosis of acute Epstein-Barr virus (EBV) infection and EBV reactivation and functions downstream of ZEBRA.
Cells were harvested and subjected to immunoblotting with monoclonal antibodies to ZEBRA or the control protein β-actin to analyze protein expression.

[6] = test system: EBV lytic cycle proteins ZEBRA and EA-D in EBV-positive HH514-16 Burkitt lymphoma cell line; experiment: Immunoblotting for ZEBRA and EA-D in HH514-16 cells induced with AZA; conditions: HH514-16, varying concentrations 2 hours before AZA for 24 hours, FIG. 2
Source text: (§2) Cells were harvested and subjected to immunoblotting with monoclonal antibodies to ZEBRA and EA-D (Early antigen-diffuse).

[7] = test system: EBV lytic cycle proteins ZEBRA and EA-D in EBV-positive Akata Burkitt lymphoma cell line; experiment: Immunoblotting for ZEBRA and EA-D in Akata cells induced with anti-IgG; conditions: varying concentrations 2 hours before anti-IgG for 24 hours, FIG. 3
Source text: as §2

[8] = test system: ZEBRA and cleaved caspase 1 in EBV-positive Mutu-I Burkitt lymphoma cells; experiment: Immunoblotting for ZEBRA, procaspase 1 and cleaved caspase 1 in Mutu-I cells induced with sodium butyrate; conditions: 1 μM for 2 hours before sodium butyrate for 24 hours, FIG. 7
Source text: Cells were harvested and subjected to immunoblotting with monoclonal antibodies to ZEBRA, procaspase 1, cleaved caspase 1, or the control protein β-actin to analyze protein expression. […] Cleavage of caspase is a marker for programmed cell death.

[9] = HH514-16, varying concentrations 2 hours before NaB for 24 or 48 hours, FIG. 1
[10] = HH514-16, varying concentrations 2 hours before sodium butyrate for 24 hours, FIG. 4

In the case of `C=CC(=O)N1CCC[C@@H](n2nc(-c3ccc(Oc4ccccc4)cc3)c3c(N)ncnc32)C1` [Ibrutinib], the “levels of ZEBRA (flow cytometry, in words)” value (“levels of ZEBRA” below) ([1]; HH514-16, NaB 24 or 48 hours, varying concentrations) is reported as “decreased”, the “Percent positive cells ZEBRA” value ([1]; HH514-16, Sodium Butyrate induction 24 h, ibrutinib 0.25 μM) is reported as 13% and the “Percent positive cells ZEBRA” value ([1]; HH514-16, Sodium Butyrate induction 24 h, ibrutinib 0.5 μM) is reported as 9.5%. For the same compound, the “Percent positive cells ZEBRA” value ([1]; HH514-16, Sodium Butyrate induction 24 h, ibrutinib 1 μM) was 9.0%, the “Percent positive cells ZEBRA” value ([1]; HH514-16, Sodium Butyrate induction 24 h, ibrutinib 2 μM) was 8.6% and the “Percent positive cells ZEBRA” value ([1]; HH514-16, Sodium Butyrate induction 24 h, ibrutinib 5 μM) was 7.0%. The “Percent positive cells ZEBRA” value ([1]; HH514-16, Sodium Butyrate induction 48 h, ibrutinib 0.25 μM) was 38%, the “Percent positive cells ZEBRA” value ([1]; HH514-16, Sodium Butyrate induction 48 h, ibrutinib 0.5 μM) was 30% and the “Percent positive cells ZEBRA” value ([1]; HH514-16, Sodium Butyrate induction 48 h, ibrutinib 1 μM) was 23%. The “Percent positive cells ZEBRA” value ([1]; HH514-16, Sodium Butyrate induction 48 h, ibrutinib 2 μM) was 22%, the “Percent positive cells ZEBRA” value ([1]; HH514-16, Sodium Butyrate induction 48 h, ibrutinib 5 μM) was 18% and the “levels of ZEBRA” value ([2]; HH514-16, AZA 24 or 48 hours, varying concentrations) was “decreased”. For the same compound, the “Percent positive cells ZEBRA” value ([2]; HH514-16, AZA induction 24 h, ibrutinib 0.25 μM) was 13%, the “Percent positive cells ZEBRA” value ([2]; HH514-16, AZA induction 24 h, ibrutinib 0.5 μM) was 11% and the “Percent positive cells ZEBRA” value ([2]; HH514-16, AZA induction 24 h, ibrutinib 1 μM) was 9.0%. For the same compound, the “Percent positive cells ZEBRA” value ([2]; HH514-16, AZA induction 24 h, ibrutinib 2 μM) was 10%, the “Percent positive cells ZEBRA” value ([2]; HH514-16, AZA induction 24 h, ibrutinib 5 μM) was 9.0% and the “Percent positive cells ZEBRA” value ([2]; HH514-16, AZA induction 48 h, ibrutinib 0.25 μM) was 13%. The “Percent positive cells ZEBRA” value ([2]; HH514-16, AZA induction 48 h, ibrutinib 0.5 μM) was 13%, the “Percent positive cells ZEBRA” value ([2]; HH514-16, AZA induction 48 h, ibrutinib 1 μM) was 15% and the “Percent positive cells ZEBRA” value ([2]; HH514-16, AZA induction 48 h, ibrutinib 2 μM) was 13%. For the same compound, the “Percent positive cells ZEBRA” value ([2]; HH514-16, AZA induction 48 h, ibrutinib 5 μM) was 14%, the “Percent positive cells ZEBRA” value ([3]; ibrutinib 0.25 μM) was 7% and the “Percent positive cells ZEBRA” value ([3]; ibrutinib 0.5 μM) was 7%. For the same compound, the “Percent positive cells ZEBRA” value ([3]; ibrutinib 1 μM) was 5.5%, the “Percent positive cells ZEBRA” value ([3]; ibrutinib 2 μM) was 5.7% and the “Percent positive cells ZEBRA” value ([3]; ibrutinib 5 μM) was 5.7%. The “levels of ZEBRA” value ([3]; rabbit-anti human IgG 24 hours, varying concentrations) was “decreased”, the “Percent ZEBRA positive cells” value ([4]; inhibitor conc. 0.5 μM) was 0.52% and the “Percent ZEBRA positive cells” value ([4]; inhibitor conc. 1 μM) was 0.73%. The “expression of EA-D (immunoblot)” value [5, 9] was “significantly reduced”, the “expression of ZEBRA (immunoblot)” value [5, 9] was “significantly reduced” and the “expression of ZEBRA (immunoblot)” value [5, 10] was “significantly reduced”. The “expression of EA-D (immunoblot)” value [6] was “significantly reduced”, the “expression of ZEBRA (immunoblot)” value [6] was “significantly reduced” and the “expression of EA-D (immunoblot)” value [7] was “significantly reduced”. The “expression of ZEBRA (immunoblot)” value [7] was “significantly reduced”.

In the case of `CC#CC(=O)N1CCC[C@H]1c1nc(-c2ccc(C(=O)Nc3ccccn3)cc2)c2c(N)nccn12` [Acalabrutinib], the “Percent ZEBRA positive cells” value ([4]; inhibitor conc. 1 μM) is reported as 1.15%, the “Percent ZEBRA positive cells” value ([4]; inhibitor conc. 10 μM) is reported as 0.92% and the “expression of ZEBRA (immunoblot)” value [5, 10] is reported as “significantly reduced”. The “Cleaved caspase 1 (immunoblot)” value [8] was “significantly reduced” and the “expression of ZEBRA (immunoblot)” value [8] was “significantly reduced”.

`C=CC(=O)N1CCC([C@@H]2CCNc3c(C(N)=O)c(-c4ccc(Oc5ccccc5)cc4)nn32)CC1` [Zanubrutinib] was tested, and the “Percent ZEBRA positive cells” value ([4]; inhibitor conc. 1 μM) was 0.65%, the “Percent ZEBRA positive cells” value ([4]; inhibitor conc. 10 μM) was 0.85% and the “expression of ZEBRA (immunoblot)” value [5, 10] was “significantly reduced”. The “Cleaved caspase 1 (immunoblot)” value [8] was “significantly reduced” and the “expression of ZEBRA (immunoblot)” value [8] was “significantly reduced”.
